From patent EP4707277A1, “NOVEL HETEROCYCLIC AMINE DERIVATIVES AND PHARMACEUTICAL COMPOSITION COMPRISING SAME” (Daewoong Pharmaceutical Co., Ltd., priority 2023, dated 2024)
Where two headings read alike, the source gives them in different places.

Experiments:
[1] = target: T1, BTK (Homo sapiens, UniProt Q06187); assay: Inhibitory activity against BTK, ADP-Glo Kinase system (Promega); format: biochemical
T1 construct: purchased Signalchem B10-10H
In short: (§1)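 ADP-Glo luminescent ADP detection with recombinant human ITK (4 ng/reaction) or BTK (10 ng/reaction) and poly(Glu4,Tyr1) substrate at 0.2 µg/µl. Buffer: Tris pH 7.5, MgCl2, MnCl2, BSA, DTT. ATP 1 mM or Km (BTK 10 µM, ITK 25 µM); 1% DMSO; 1 h at 30°C; IC50 from curve fit.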

[2] = target: T2, ITK (Homo sapiens, UniProt Q08881); assay: Inhibitory activity against ITK, ADP-Glo Kinase system (Promega); format: biochemical
T2 construct: purchased Signalchem I13-11G-10
T2 sequence (Q08881 1-620): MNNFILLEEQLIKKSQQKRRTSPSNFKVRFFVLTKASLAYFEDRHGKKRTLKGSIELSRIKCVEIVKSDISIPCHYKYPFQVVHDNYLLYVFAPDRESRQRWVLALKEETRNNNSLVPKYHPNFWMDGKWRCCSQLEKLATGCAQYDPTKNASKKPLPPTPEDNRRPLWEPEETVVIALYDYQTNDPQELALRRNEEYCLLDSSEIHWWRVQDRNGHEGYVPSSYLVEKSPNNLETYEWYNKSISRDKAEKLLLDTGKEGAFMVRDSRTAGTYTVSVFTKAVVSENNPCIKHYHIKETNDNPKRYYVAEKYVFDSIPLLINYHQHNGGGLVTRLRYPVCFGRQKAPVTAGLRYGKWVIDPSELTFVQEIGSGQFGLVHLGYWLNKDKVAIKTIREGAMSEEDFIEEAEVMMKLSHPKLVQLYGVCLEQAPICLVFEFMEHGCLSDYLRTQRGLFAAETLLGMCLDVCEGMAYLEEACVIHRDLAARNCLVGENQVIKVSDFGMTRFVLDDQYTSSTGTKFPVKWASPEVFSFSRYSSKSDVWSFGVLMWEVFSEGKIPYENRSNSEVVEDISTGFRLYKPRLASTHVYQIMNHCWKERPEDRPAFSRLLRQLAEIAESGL
In short: as §1

[3] = 1mM ATP, read-out: BTK IC50(nM) 1mM ATP
[4] = 1mM ATP, read-out: ITK IC50(nM) 1mM ATP
[5] = Km ATP (BTK: 10 uM), read-out: BTK IC50(nM) Km ATP
[6] = Km ATP (ITK: 25uM), read-out: ITK IC50(nM) Km ATP

T1 sequence (Q06187 whole entry): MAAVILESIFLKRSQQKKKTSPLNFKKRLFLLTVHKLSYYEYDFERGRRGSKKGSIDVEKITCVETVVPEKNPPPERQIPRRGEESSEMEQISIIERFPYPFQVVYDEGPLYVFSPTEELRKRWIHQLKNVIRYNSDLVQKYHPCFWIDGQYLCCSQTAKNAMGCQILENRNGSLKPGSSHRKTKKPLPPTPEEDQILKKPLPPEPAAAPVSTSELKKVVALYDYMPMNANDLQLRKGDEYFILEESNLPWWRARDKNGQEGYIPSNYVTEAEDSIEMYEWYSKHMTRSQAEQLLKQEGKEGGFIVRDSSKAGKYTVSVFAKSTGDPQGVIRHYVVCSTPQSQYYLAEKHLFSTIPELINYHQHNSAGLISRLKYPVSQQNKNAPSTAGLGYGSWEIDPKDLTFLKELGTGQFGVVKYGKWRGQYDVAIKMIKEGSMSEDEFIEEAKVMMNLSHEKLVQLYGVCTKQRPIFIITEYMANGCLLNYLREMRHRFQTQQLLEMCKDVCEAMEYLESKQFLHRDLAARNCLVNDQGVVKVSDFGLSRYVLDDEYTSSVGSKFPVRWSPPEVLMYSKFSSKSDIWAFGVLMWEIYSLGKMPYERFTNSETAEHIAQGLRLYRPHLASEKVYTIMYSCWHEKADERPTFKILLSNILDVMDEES

| SMILES | IC50 [1, 3] [nM] | IC50 [2, 4] [nM] | IC50 [1, 5] [nM] | IC50 [2, 6] [nM] |
| --- | --- | --- | --- | --- |
| C=CC(=O)N1CC=C(c2nc(Nc3cc(F)ccn3)cc3c2ccn3C(C)C)CC1 [Example 47, 1-(4-(6-((4-fluoropyridin-2-yl)amino)-1-isopropyl-1H-pyrrolo[3,2-c]pyridin-4-yl)-3,6-dihydropyridin-1(2H)-yl)prop-2-en-1-one] | ≤ 20 | 20 to 100 | – | – |
| C=CC(=O)N1CC=C(c2nc(Nc3cc(OC)ncn3)cc3c2ccn3C(C)C)CC1 [Example 46, 1-(4-(1-isopropyl-6-((6-methoxypyrimidin-4-yl)amino)-1H-pyrrolo[3,2-c]pyridin-4-yl)-3,6-dihydropyridin-1(2H)-yl)prop-2-en-1-one] | ≤ 20 | 100 to 500 | – | – |
| C=CC(=O)N1C[C@@H](F)[C@H](Oc2nc(Nc3ncc(C)s3)cc3c2ccn3CC(C)C)C1 [Example 106, 1-((3R,4R)-3-fluoro-4-((1-isobutyl-6-((5-methylthiazol-2-yl)amino)-1H-pyrrolo[3,2-c]pyridin-4-yl)oxy)pyrrolidin-1-yl)prop-2-en-1-one] | ≤ 20 | ≤ 20 | – | – |
| C=CC(=O)N1C[C@@H](Oc2nc(Nc3ncc(C)s3)cc3c2ccn3CC(F)(F)F)C[C@H]1C [Example 212, 1-((2R,4S)-2-methyl-4-((6-((5-methylthiazol-2-yl)amino)-1-(2,2,2-trifluoroethyl)-1H-pyrrolo[3,2-c]pyridin-4-yl)oxy)pyrrolidin-1-yl)prop-2-en-1-one] | ≤ 20 | ≤ 20 | – | – |
| C=CC(=O)N1CCC[C@H](Oc2nc(Nc3ncc(C)s3)cc3c2ccn3C)C1 [Example 158, (S)-1-(3-((1-methyl-6-((5-methylthiazol-2-yl)amino)-1H-pyrrolo[3,2-c]pyridin-4-yl)oxy)piperidin-1-yl)prop-2-en-1-one] | ≤ 20 | 20 to 100 | – | – |
| C=CC(=O)N1CC(C)(Oc2nc(Nc3ncc(C)s3)cc3c2ccn3CCC(C)C)C1 [Example 177, 1-(3-((1-isopentyl-6-((5-methylthiazol-2-yl)amino)-1H-pyrrolo[3,2-c]pyridin-4-yl)oxy)-3-methylazetidin-1-yl)prop-2-en-1-one] | ≤ 20 | ≤ 20 | – | – |
| C=CC(=O)N1CC=C(c2nc(Nc3ncc(C)s3)cc3c2ccn3CCc2ccccc2)CC1 [Example 16, 1-(4-(6-((5-methylthiazol-2-yl)amino)-1-phenethyl-1H-pyrrolo[3,2-c]pyridin-4-yl)-3,6-dihydropyridin-1(2H)-yl)prop-2-en-1-one] | – | – | ≤ 20 | ≤ 20 |
| C#CC(=O)N1C[C@H](F)[C@H](Oc2nc(Nc3ncc(C)s3)cc3c2ccn3CC(C)C)C1 [Example 231, 1-((3S,4R)-3-fluoro-4-((1-isobutyl-6-((5-methylthiazol-2-yl)amino)-1H-pyrrolo[3,2-c]pyridin-4-yl)oxy)pyrrolidin-1-yl)prop-2-yn-1-one] | ≤ 20 | ≤ 20 | – | – |
| C=CC(=O)N1C[C@@H](Oc2nc(Nc3ncc(C)s3)cc3c2ccn3CC(C)C)C[C@@H]1C [Example 179, 1-((2S,4S)-4-((1-isobutyl-6-((5-methylthiazol-2-yl)amino)-1H-pyrrolo[3,2-c]pyridin-4-yl)oxy)-2-methylpyrrolidin-1-yl)prop-2-en-1-one] | ≤ 20 | ≤ 20 | – | – |
| C=CC(=O)N1CC[C@@H](Oc2nc(Nc3ncc(C)s3)cc3c2ccn3C2CCCC2)C1 [Example 143, (R)-1-(3-((1-cyclopentyl-6-((5-methylthiazol-2-yl)amino)-1H-pyrrolo[3,2-c]pyridin-4-yl)oxy)pyrrolidin-1-yl)prop-2-en-1-one] | > 500 | > 500 | – | – |
| C=CC(=O)N1CC(C)(Oc2nc(Nc3ncc(C)s3)cc3c2ccn3CC)C1 [Example 155, 1-(3-((1-ethyl-6-((5-methylthiazol-2-yl)amino)-1H-pyrrolo[3,2-c]pyridin-4-yl)oxy)-3-methylazetidin-1-yl)prop-2-en-1-one] | ≤ 20 | 20 to 100 | – | – |
| C=CC(=O)N1C[C@@H](F)[C@H](Oc2nc(Nc3ncc(C)s3)cc3c2ccn3C)C1 [Example 157, 1-((3R,4R)-3-fluoro-4-((1-methyl-6-((5-methylthiazol-2-yl)amino)-1H-pyrrolo[3,2-c]pyridin-4-yl)oxy)pyrrolidin-1-yl)prop-2-en-1-one] | ≤ 20 | ≤ 20 | – | – |
| C=CC(=O)N1C[C@H](F)[C@H](Oc2nc(Nc3ncc(C)s3)cc3c2ccn3C(C)C)C1 [Example 83, 1-((3S,4R)-3-fluoro-4-((1-isopropyl-6-((5-methylthiazol-2-yl)amino)-1H-pyrrolo[3,2-c]pyridin-4-yl)oxy)pyrrolidin-1-yl)prop-2-en-1-one] | ≤ 20 | ≤ 20 | – | – |
| C=CC(=O)N1CC[C@H](Oc2nc(Nc3ncc(C)s3)cc3c2ccn3CCCC)C1 [Example 124, (S)-1-(3-((1-butyl-6-((5-methylthiazol-2-yl)amino)-1H-pyrrolo[3,2-c]pyridin-4-yl)oxy)pyrrolidin-1-yl)prop-2-en-1-one] | – | – | ≤ 20 | ≤ 20 |
